Data set [1] in a line: Cytotoxicity against human A549 cells assessed as reduction in cell viability incubated for 48 hrs by MTT assay. The format is toxicity, cell-based. On the technique in general: Formazan colour is commonly taken as a measure of viable cells.
A further data set deals with Zika virus. The data set can be described thus: Antiviral activity against ZIKV ZG-01 infected in A549 cells preincubated for 1 hr followed by replacement with fresh media containing compound for 48 hrs by crystal violet staining based plaque assay. It is filed as functional, organism-based. The note with it: ZG-01, A549.
A further data set concerns the target NS5 (Zika virus) (UniProt A0A143MHK7). As to the kind of experiment: Binding affinity to ZIKV RdRP by SPR assay.
Data set [2] deals with Porcine reproductive and respiratory syndrome virus. The data set can be described thus: Antiviral activity against Porcine reproductive and respiratory syndrome virus infected in MARC145 cells assessed as reduction in viral replication by microscopic analysis. The format is functional, organism-based.

Molecules are shown by their SMILES. The source made the active and inactive calls. The calls are words filed in the database; no cut-off is given here.

One may read the CC50 as the concentration that lowers cell viability or growth by half. As a reminder, the EC50 is the midpoint of the concentration-response curve. Consider `CCNc1cc(O)c2c(c1O)C(=O)C1=C(C[C@@](C)(O)[C@@](C)(O)C1)C2=O`, for which the CC50 at 48 h in data set [1] is > 50 µM. The same molecule displayed an EC50 with Zika virus of 44.2 µM.
The like results for `C[C@]1(O)CC2=C(C[C@@]1(C)O)C(=O)c1c(O)cc(NC3CC3)c(O)c1C2=O` were, in that order, > 50 µM and 48.1 µM.
On the same counts, the results for `C[C@]1(O)CC2=C(C[C@@]1(C)O)C(=O)c1c(O)cc(N3CCCC3)c(O)c1C2=O` are > 50 µM and 25.6 µM.
`C[C@]1(O)CC2=C(C[C@@]1(C)O)C(=O)c1c(O)cc(N3CCOCC3)c(O)c1C2=O`: the CC50 at 48 h in data set [1] was > 50 µM. The molecule also had an EC50 in the data set on Zika virus of 15.4 µM.
Turning to `C[C@]1(O)CC2=C(C[C@@]1(C)O)C(=O)c1c(O)cc(NCCN3CCCCC3)c(O)c1C2=O`, in data set [1], the CC50 at 48 h is > 50 µM. Moreover, the EC50 with Zika virus amounted to 8.7 µM.
Turning to `C[C@]1(O)CC2=C(C[C@@]1(C)O)C(=O)c1c(O)cc(NCC3CCCO3)c(O)c1C2=O` (some centres undefined), the CC50 at 48 h in data set [1] was > 50 µM. Besides, in the data set on Zika virus, the EC50 came out at 36.1 µM.
Regarding `NC(=O)c1ncn([C@@H]2O[C@H](CO)[C@@H](O)[C@H]2O)n1`, the result at NS5 (Zika virus) was inactive.
Consider `C[C@]1(O)CC2=C(C[C@@]1(C)O)C(=O)c1c(O)cc(NCc3ccco3)c(O)c1C2=O`, for which the CC50 at 48 h in data set [1] is > 50 µM. In the data set on Zika virus, this molecule yielded an EC50 of 16.5 µM.
Regarding `CCC(C)Nc1cc(O)c2c(c1O)C(=O)C1=C(C[C@@](C)(O)[C@@](C)(O)C1)C2=O` (some centres undefined), the CC50 at 48 h in data set [1] was > 50 µM. Moreover, in the data set on Zika virus, the EC50 is > 50 µM.
Consider `C[C@]1(O)CC2=C(C[C@@]1(C)O)C(=O)c1c(O)cc(NCCC3=CCCCC3)c(O)c1C2=O`, for which, in data set [1], the CC50 at 48 h is > 50 µM. The molecule also returned an EC50 in the data set with Zika virus of 5.7 µM.
For the molecule `C[C@]1(O)CC2=C(C[C@@]1(C)O)C(=O)c1c(O)cc(NC3CCCCC3)c(O)c1C2=O`, the CC50 at 48 h in data set [1] is > 50 µM. In the data set on Zika virus, this molecule had an EC50 of 15.5 µM.
Turning to `C[C@]1(O)CC2=C(C[C@@]1(C)O)C(=O)c1c(O)cc(NCc3cccs3)c(O)c1C2=O`, the CC50 at 48 h in data set [1] is > 50 µM. The same molecule displayed an EC50 with Zika virus of 12.2 µM.
For the molecule `C[C@]1(O)CC2=C(C[C@@]1(C)O)C(=O)c1c(O)cc(NCc3ccccc3)c(O)c1C2=O`, the CC50 at 48 h in data set [1] was > 50 µM. In the data set with Zika virus, this molecule registered an EC50 of 10.3 µM.
Regarding `C[C@]1(O)CC2=C(C[C@@]1(C)O)C(=O)c1c(O)cc(NCCO)c(O)c1C2=O`, in data set [1], the CC50 at 48 h was > 50 µM. Besides, the EC50 in the data set with Zika virus stood at 48.4 µM.
Turning to `C[C@]1(O)CC2=C(C[C@@]1(C)O)C(=O)c1c(O)cc(NC3CCC3)c(O)c1C2=O`, in data set [1], the CC50 at 48 h is > 50 µM. Further, the midpoint of the response with Zika virus, the EC50, lay at 38.4 µM.
Turning to `COc1cc(O)c2c(c1)[C@@H](O)[C@H]1C[C@](C)(O)[C@H](O)C[C@@H]1C2=O` [TETRAHYDROALTERSOLANOL C], in data set [2], the EC50 came to 12.1 µM.
As to `C[C@]1(O)CC2=C(C[C@@]1(C)O)C(=O)c1c(O)cc(NCCN3CCCC3)c(O)c1C2=O`, the CC50 at 48 h in data set [1] is > 50 µM. In addition, it took 8.4 µM to reach a half-maximal effect with Zika virus (EC50).
For the molecule `C[C@]1(O)CC2=C(C[C@@]1(C)O)C(=O)c1c(O)cc(NCCc3cccs3)c(O)c1C2=O`, the CC50 at 48 h in data set [1] was > 50 µM. The EC50 with Zika virus stood at 7.8 µM.
For `C[C@]1(O)CC2=C(C[C@@]1(C)O)C(=O)c1c(O)cc(NCCc3ccco3)c(O)c1C2=O`, the CC50 at 48 h in data set [1] was > 50 µM. In addition, the response in the data set with Zika virus was half-maximal at 8.1 µM (EC50).
With `C[C@]1(O)CC2=C(C[C@@]1(C)O)C(=O)c1c(O)cc(NC3CCCC3)c(O)c1C2=O`, in data set [1], the CC50 at 48 h is > 50 µM. This molecule also yielded an EC50 with Zika virus of 17.1 µM.
Turning to `C[C@]1(O)CC2=C(C[C@@]1(C)O)C(=O)c1c(O)cc(NCCc3ccccc3)c(O)c1C2=O`, in data set [1], the CC50 at 48 h was > 50 µM. This molecule had an EC50 with Zika virus of 4.2 µM.
Consider `CCCNc1cc(O)c2c(c1O)C(=O)C1=C(C[C@@](C)(O)[C@@](C)(O)C1)C2=O`, for which, in data set [1], the CC50 at 48 h is > 50 µM. This molecule also yielded an EC50 with Zika virus of 42.6 µM.
For the molecule `C[C@]1(O)CC2=C(C[C@@]1(C)O)C(=O)c1c(O)cc(NCCN3CCOCC3)c(O)c1C2=O`, the CC50 at 48 h in data set [1] is > 50 µM. In the data set with Zika virus, this molecule registered an EC50 of 24.5 µM.

(Values after ChEMBL document CHEMBL5620422, “Design, synthesis, and biological evaluation of a series of new anthraquinone derivatives as anti-ZIKV agents” (Eur J Med Chem, 2023).)
